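Assay format: 96-well plates, 48-hour exposure. Abbreviation: GI50, concentration required for 50% inhibition of growth.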 Activity calls are given as the source filed them. No stated cut-off is given here; in the data, active = GI50 up to about 1.1 µM and inactive = higher.
Tests used:
Test in all cases: NCI tumour cell line growth inhibition, 48 h
786-0 = system: 786-0
A498 = system: A498
A549 = system: A549
ACHN = system: ACHN
BT-549 = system: BT-549
CAKI-1 = system: CAKI-1
CCRF-CEM = system: CCRF-CEM
COLO 205 = system: COLO 205
DU-145 = system: DU-145
EKVX = system: EKVX
HCC 2998 = system: HCC 2998
HCT-116 = system: HCT-116
HCT-15 = system: HCT-15
HL-60 = system: HL-60
HOP-62 = system: HOP-62
HOP-92 = system: HOP-92
HT-29 = system: HT-29
Hs-578T = system: Hs-578T
IGROV-1 = system: IGROV-1
K562 = system: K562
KM12 = system: KM12
LOX IMVI = system: LOX IMVI
M14 = system: M14
MDA-MB-231 = system: MDA-MB-231
MDA-MB-435 = system: MDA-MB-435
MDA-N = system: MDA-N
MOLT-4 = system: MOLT-4
Malme-3M = system: Malme-3M
NCI-H226 = system: NCI-H226
NCI-H23 = system: NCI-H23
NCI-H460 = system: NCI-H460
NCI-H522 = system: NCI-H522
NCI/ADR-RES = system: NCI/ADR-RES
OVCAR-3 = system: OVCAR-3
OVCAR-5 = system: OVCAR-5
OVCAR-8 = system: OVCAR-8
PC-3 = system: PC-3
RPMI-8226 = system: RPMI-8226
RXF 393 = system: RXF 393
SF-268 = system: SF-268
SF-295 = system: SF-295
SF-539 = system: SF-539
SK-MEL-28 = system: SK-MEL-28
SK-OV-3 = system: SK-OV-3
SN12C = system: SN12C
SNB-19 = system: SNB-19
SR = system: SR
SW-620 = system: SW-620
TK-10 = system: TK-10
U-251 = system: U-251
UACC-257 = system: UACC-257
UACC-62 = system: UACC-62
UO-31 = system: UO-31
MCF7 = system: MCF7
OVCAR-4 = system: OVCAR-4
SK-MEL-5 = system: SK-MEL-5
SNB-75 = system: SNB-75
T47D = system: T47D
SK-MEL-2 = system: SK-MEL-2

Measured: GI50

Cc1cn(C2CC(/[N+]([O-])=N\Nc3ccc([N+](=O)[O-])cc3)C(CO)O2)c(=O)[nH]c1=O (centres undefined)
> 100 µM: HCT-15
inactive: 786-0 > 100 µM | A498 > 100 µM | A549 > 100 µM | ACHN > 100 µM | BT-549 > 100 µM | CAKI-1 > 100 µM | CCRF-CEM > 100 µM | COLO 205 > 100 µM | DU-145 > 100 µM | EKVX > 100 µM | HCC 2998 40.7 µM | HCT-116 > 100 µM | HL-60 > 100 µM | HOP-62 > 100 µM | HOP-92 > 100 µM | HT-29 > 100 µM | Hs-578T > 100 µM | IGROV-1 22.5 µM | K562 > 100 µM | KM12 > 100 µM | LOX IMVI > 100 µM | M14 > 100 µM | MDA-MB-231 73.3 µM | MDA-MB-435 > 100 µM | MDA-N > 100 µM | MOLT-4 22.2 µM | Malme-3M > 100 µM | NCI-H226 > 100 µM | NCI-H23 > 100 µM | NCI-H460 94.2 µM | NCI-H522 > 100 µM | NCI/ADR-RES > 100 µM | OVCAR-3 > 100 µM | OVCAR-5 > 100 µM | OVCAR-8 > 100 µM | PC-3 > 100 µM | RPMI-8226 42.8 µM | RXF 393 > 100 µM | SF-268 > 100 µM | SF-295 > 100 µM | SF-539 > 100 µM | SK-MEL-28 > 100 µM | SK-OV-3 > 100 µM | SN12C > 100 µM | SNB-19 > 100 µM | SR 4.62 µM | SW-620 > 100 µM | TK-10 > 100 µM | U-251 > 100 µM | UACC-257 > 100 µM | UACC-62 > 100 µM | UO-31 > 100 µM

COC(=O)/C=C1/OC(c2ccccc2)=C(Br)C1=O
inactive: 786-0 25 µM | A498 70.8 µM | ACHN 46.8 µM | BT-549 18.7 µM | CAKI-1 24.8 µM | CCRF-CEM 25.8 µM | COLO 205 > 100 µM | DU-145 87.1 µM | EKVX > 100 µM | HCC 2998 56.8 µM | HCT-116 17.9 µM | HL-60 35.2 µM | HOP-62 > 100 µM | HOP-92 64.4 µM | HT-29 20.1 µM | IGROV-1 > 10 µM | K562 21.7 µM | KM12 55.5 µM | LOX IMVI 24.3 µM | M14 44.7 µM | MCF7 34.3 µM | MDA-MB-231 8.07 µM | MDA-MB-435 38 µM | MDA-N 42.1 µM | MOLT-4 28.5 µM | Malme-3M 49 µM | NCI-H226 68.9 µM | NCI-H23 57.5 µM | NCI-H460 35.9 µM | NCI-H522 25.1 µM | OVCAR-3 > 100 µM | OVCAR-4 55.7 µM | OVCAR-5 > 100 µM | OVCAR-8 29.9 µM | PC-3 18.9 µM | RPMI-8226 31.4 µM | RXF 393 48.2 µM | SF-268 49.4 µM | SF-539 45.9 µM | SK-MEL-28 64.1 µM | SK-MEL-5 20.3 µM | SK-OV-3 > 100 µM | SN12C 37.1 µM | SNB-19 79.1 µM | SNB-75 45 µM | SR 20.8 µM | SW-620 18.4 µM | T47D 45.3 µM | TK-10 80.5 µM | U-251 23.2 µM | UACC-257 73.3 µM | UACC-62 20 µM | UO-31 40 µM
10.6 µM: HCT-15

CN1C(=O)C(O)C[C@@H]1c1ccc(F)cc1 (some centres undefined)
> 100 µM: HCT-15
inactive: 786-0 > 100 µM | A549 > 100 µM | ACHN > 100 µM | BT-549 > 100 µM | CAKI-1 > 100 µM | CCRF-CEM > 100 µM | COLO 205 > 100 µM | DU-145 > 100 µM | EKVX > 100 µM | HCC 2998 > 100 µM | HCT-116 > 100 µM | HL-60 > 100 µM | HOP-62 > 100 µM | HOP-92 > 100 µM | HT-29 > 100 µM | IGROV-1 > 100 µM | LOX IMVI > 100 µM | M14 > 100 µM | MCF7 > 100 µM | MDA-MB-231 > 100 µM | MDA-MB-435 > 100 µM | MDA-N > 100 µM | MOLT-4 > 100 µM | NCI-H226 > 100 µM | NCI-H23 > 100 µM | OVCAR-3 > 100 µM | OVCAR-4 > 100 µM | OVCAR-5 > 100 µM | PC-3 > 100 µM | RPMI-8226 > 100 µM | RXF 393 > 100 µM | SF-295 > 100 µM | SF-539 > 100 µM | SK-MEL-28 > 100 µM | SK-MEL-2 > 100 µM | SK-MEL-5 > 100 µM | SK-OV-3 > 100 µM | SN12C > 100 µM | SNB-19 > 100 µM | SR > 100 µM | T47D > 100 µM | TK-10 > 100 µM | U-251 > 100 µM | UACC-257 > 100 µM | UACC-62 > 100 µM | UO-31 > 100 µM

Source: ChEMBL document CHEMBL1201862, “PubChem BioAssay data set” (2004)
